ChEMBL document CHEMBL1126344, “Substituted penta- and hexapeptides as potent inhibitors of herpes simplex virus type 2 ribonucleotide reductase” (Bioorg Med Chem Lett, 1992)
Non-standard residues stand in square brackets, D forms with d. Residues, ends and D or L forms follow the SMILES beside them. *: point of attachment. Dibenzylacetyl = O=C(C(Cc1ccccc1)Cc1ccccc1)*; NMeY = CN[C@@H](Cc1ccc(O)cc1)C(=O)O; tBuAla = CC(C)(C)C[C@H](N)C(=O)O; AllylGly = C=CC[C@H](N)C(=O)O; Pyrrolidide = C1CCN(*)C1; NHBn = c1ccc(CN*)cc1

How the values were obtained:
[1] = Inhibitory activity of YAGAVVNDL against Herpes Simplex Virus type 2 (HSV-2) ribonucleotide reductase determined as control; set-up: species or system Human alphaherpesvirus 2
[2] = The compound was tested in vitro for inhibitory activity against Herpes Simplex Virus type 2 ribonucleotide reductase; set-up: species or system Human alphaherpesvirus 2
Human alphaherpesvirus 2 = test: Relative potency to that of YAGAVVNDL against Herpes Simplex Virus type 2 ribonucleotide reductase

Row | IC50 [1] | IC50 [2] | Relative potency (Human alphaherpesvirus 2) | SMILES
1 | 24 µM | 11 µM | 2.2 | CC(C)C[C@H](NC(=O)[C@H](CC(=O)O)NC(=O)[C@H](CC(N)=O)NC(=O)[C@@H](NC(=O)[C@@H](NC(=O)N(Cc1ccccc1)Cc1ccccc1)C(C)C)C(C)C)C(=O)O
2 | 24 µM | 170 µM | 0.14 | CC(C)C[C@H](NC(=O)[C@H](CC(=O)O)NC(=O)[C@H](CC(N)=O)NC(=O)[C@@H](NC(=O)[C@@H](NC(=O)N(c1ccccc1)c1ccccc1)C(C)C)C(C)C)C(=O)O
3 | 24 µM | 90 µM | 0.27 | CC(C)C[C@H](NC(=O)[C@H](CC(=O)O)NC(=O)[C@H](CC(N)=O)NC(=O)[C@@H](NC(=O)[C@@H](NC(=O)C(c1ccccc1)c1ccccc1)C(C)C)C(C)C)C(=O)O
4 | 5 µM | 21 µM | 0.24 | CC(C)C[C@H](NC(=O)[C@H](CC(=O)O)NC(=O)[C@H](CC(N)=O)NC(=O)[C@@H](NC(=O)[C@@H](NC(=O)C(C)(C)C)C(C)C)C(C)C)C(=O)O
5 | 10 µM | 0.2 µM | 50 | CC(C)[C@H](NC(=O)C(Cc1ccccc1)Cc1ccccc1)C(=O)N[C@H](C(=O)N[C@@H](CC(=O)NCc1ccccc1)C(=O)N[C@@H](CC(=O)O)C(=O)N[C@@H](CC(C)(C)C)C(=O)O)C(C)C (Dibenzylacetyl-VVD(NHBn)D[tBuAla]-OH)
6 | 21 µM | 0.3 µM | 70 | CC(C)[C@H](NC(=O)C(Cc1ccccc1)Cc1ccccc1)C(=O)N[C@H](C(=O)N[C@@H](CC(=O)N(C)C)C(=O)N[C@@H](CC(=O)O)C(=O)N[C@@H](CC(C)(C)C)C(=O)O)C(C)C (Dibenzylacetyl-VVD(NMe2)D[tBuAla]-OH)
7 | 27 µM | 2 µM | 14 | COC(=O)C[C@H](NC(=O)[C@@H](NC(=O)[C@@H](NC(=O)[C@@H](N)Cc1ccccc1)C(C)C)C(C)C)C(=O)N[C@@H](CC(=O)O)C(=O)N[C@@H](CC(C)C)C(=O)O (H-FVVD(OMe)DL-OH)
8 | 30 µM | 58 µM |  | CC(C)C[C@H](NC(=O)[C@H](CC(=O)O)NC(=O)[C@H](CC(N)=O)NC(=O)[C@@H](NC(=O)[C@@H](NC(=O)[C@@](C)(N)Cc1ccc(O)cc1)C(C)C)C(C)C)C(=O)O (stereo in doubt; form 1) [listing 1 of 2 here]
9 |  |  | 0.52 | CC(C)C[C@H](NC(=O)[C@H](CC(=O)O)NC(=O)[C@H](CC(N)=O)NC(=O)[C@@H](NC(=O)[C@@H](NC(=O)[C@@](C)(N)Cc1ccc(O)cc1)C(C)C)C(C)C)C(=O)O (stereo in doubt; form 1) [listing 2 of 2 here]
10 |  |  | 6 | CC(C)C[C@H](NC(=O)[C@H](CC(=O)O)NC(=O)[C@H](CC(N)=O)NC(=O)[C@@H](NC(=O)[C@@H](NC(=O)C(Cc1ccccc1)Cc1ccc(O)cc1)C(C)C)C(C)C)C(=O)O (stereo in doubt; form 2) [listing 2 of 2 here]

The remaining lines, values behind:

Row | SMILES | IC50 [1] | IC50 [2] | Relative potency (Human alphaherpesvirus 2)
11 | CC(C)C[C@H](NC(=O)[C@H](CC(=O)O)NC(=O)[C@H](CC(N)=O)NC(=O)[C@@H](NC(=O)[C@@H](NC(=O)CC(c1ccccc1)c1ccccc1)C(C)C)C(C)C)C(=O)O | 60 µM | 10 µM | 6
12 | CC(C)C[C@H](NC(=O)[C@H](CC(=O)O)NC(=O)[C@H](CC(N)=O)NC(=O)[C@@H](NC(=O)[C@@H](NC(=O)C(C)C)C(C)C)C(C)C)C(=O)O | 5 µM | 30 µM | 0.17
13 | CC(C)C[C@H](NC(=O)[C@H](CC(=O)O)NC(=O)[C@H](CC(N)=O)NC(=O)[C@@H](NC(=O)[C@@H](NC(=O)C(Cc1ccccc1)Cc1ccccc1)C(C)C)C(C)C)C(=O)O | 19 µM | 0.5 µM | 38
14 | CC(C)C[C@H](NC(=O)[C@H](CC(=O)O)NC(=O)[C@H](CC(N)=O)NC(=O)[C@@H](NC(=O)[C@@H](NC(=O)CCc1ccccc1)C(C)C)C(C)C)C(=O)O | 17 µM | 11 µM | 1.5
15 | CC(C)C[C@H](NC(=O)[C@H](CC(=O)O)NC(=O)[C@H](CC(N)=O)NC(=O)[C@@H](NC(=O)[C@@H](NC(=O)CCc1ccc(O)cc1)C(C)C)C(C)C)C(=O)O | 20 µM | 21 µM | 1
16 | CC(C)C[C@H](NC(=O)[C@H](CC(=O)O)NC(=O)[C@H](CC(N)=O)NC(=O)[C@@H](NC(=O)[C@@H](NC(=O)C(Cc1ccc(O)cc1)Cc1ccc(O)cc1)C(C)C)C(C)C)C(=O)O | 35 µM | 6.5 µM | 5.4
17 | CC(C)C[C@H](NC(=O)[C@H](CC(=O)O)NC(=O)[C@H](CC(=O)NCc1ccccc1)NC(=O)[C@@H](NC(=O)[C@@H](NC(=O)C(Cc1ccccc1)Cc1ccccc1)C(C)C)C(C)C)C(=O)O (Dibenzylacetyl-VVD(NHBn)DL-OH) | 22 µM | 0.4 µM | 55
18 | CC(C)[C@H](NC(=O)C(Cc1ccccc1)Cc1ccccc1)C(=O)N[C@H](C(=O)N[C@@H](CC(N)=O)C(=O)N[C@@H](CC(=O)O)C(=O)N[C@@H](CC(C)(C)C)C(=O)O)C(C)C (Dibenzylacetyl-VVND[tBuAla]-OH) | 12 µM | 0.1 µM | 120
19 | CC(C)C[C@H](NC(=O)[C@H](CC(=O)O)NC(=O)[C@H](CC(=O)N(C)C)NC(=O)[C@@H](NC(=O)[C@@H](NC(=O)[C@@H](N)CC(=O)O)C(C)C)C(C)C)C(=O)O (H-DVVD(NMe2)DL-OH) | 9.5 µM | 0.15 µM | 63
20 | CC(C)C[C@H](NC(=O)[C@H](CC(=O)O)NC(=O)[C@H](CC(=O)N1CCCC1)NC(=O)[C@@H](NC(=O)[C@@H](NC(=O)[C@@H](N)CC(=O)O)C(C)C)C(C)C)C(=O)O (H-DVVD(Pyrrolidide)DL-OH) | 32 µM | 1 µM | 32
21 | C=CC[C@H](NC(=O)[C@H](CC(=O)O)NC(=O)[C@H](CC(N)=O)NC(=O)[C@@H](NC(=O)[C@@H](NC(=O)[C@@H](N)Cc1ccc(O)cc1)C(C)C)C(C)C)C(=O)O (H-YVVND[AllylGly]-OH) | 22 µM | > 430 µM | 
22 | CN[C@@H](Cc1ccc(O)cc1)C(=O)N[C@H](C(=O)N[C@H](C(=O)N[C@@H](CC(N)=O)C(=O)N[C@@H](CC(=O)O)C(=O)N[C@@H](CC(C)C)C(=O)O)C(C)C)C(C)C (H-[NMeY]VVNDL-OH) | 15 µM |  | 
23 | CC(C)C[C@H](NC(=O)[C@H](CC(=O)O)NC(=O)[C@H](CC(N)=O)NC(=O)[C@@H](NC(=O)[C@@H](NC(=O)C(Cc1ccccc1)Cc1ccc(O)cc1)C(C)C)C(C)C)C(=O)O (stereo in doubt; form 1) |  |  | 21
24 | CC(C)C[C@H](NC(=O)[C@H](CC(=O)O)NC(=O)[C@H](CC(N)=O)NC(=O)[C@@H](NC(=O)[C@@H](NC(=O)C(Cc1ccccc1)Cc1ccc(O)cc1)C(C)C)C(C)C)C(=O)O (stereo in doubt; form 2) [listing 1 of 2 here] | 9 µM | 1.5 µM | 
25 | CC(C)C[C@H](NC(=O)[C@H](CC(=O)O)NC(=O)[C@H](CC(N)=O)NC(=O)[C@@H](NC(=O)[C@@H](NC(=O)[C@@](C)(N)Cc1ccc(O)cc1)C(C)C)C(C)C)C(=O)O (stereo in doubt; form 2) [listing 1 of 2 here] |  | 120 µM | 
26 | CC(C)C[C@H](NC(=O)[C@H](CC(=O)O)NC(=O)[C@H](CC(N)=O)NC(=O)[C@@H](NC(=O)[C@@H](NC(=O)[C@@](C)(N)Cc1ccc(O)cc1)C(C)C)C(C)C)C(=O)O (stereo in doubt; form 2) [listing 2 of 2 here] |  |  | 0.25
